Assay [1] deals with ischemia-induced brain damage in the hippocampal CA1 region. Description: Stroke model in rats. The assay is classed as in vivo, Male Wistar rats. The note with it: mean ± standard error, scale 0 = no damage to 3 = severe damage of CA1 layer. From the text:
Strokes were produced in rats by occluding the four arteries that supply blood to the brain according to the following procedure. Male Wistar rats were anesthetized with Metofane and placed into a stereotaxic instrument. A longitudinal incision was made on the dorsal surface of the neck. The neck muscles were reflected to expose the dorsal surface of the spinal column. The two vertebral arteries were exposed where they pass through the first cervical vertebra. Both arteries were permanently occluded by the application of electrocautery. After coagulation of the vertebral arteries, the rat was removed from the stereotaxic instrument and the surgical wound was sutured. Two longitudinal incisions were then made on the ventral surface of the neck. The two common carotid arteries were exposed and dissected free from surrounding nerves and connective tissue. An atraumatic clasp, fabricated mainly from silicon rubber tubing, was placed around each carotid artery in a manner such that the vessel was not traumatized or occluded. The surgical wounds were then closed. The atraumatic clasps were designed in such a manner that they could be tightened to occlude the carotid arteries by pulling on a small silastic thread that was allowed to protrude from the wound. Circulation to the brain through the carotids could be restored by relieving the tension on the silastic threads. After the surgery, the rats were allowed to recover for 24 hours.
On the day of testing, compounds were suspended in 2% acacia and were administered orally at various times before stroke induction. Strokes (cerebral ischemia) were induced by tightening the clasps around the carotids for a period of 30 minutes. During this time, rats in which strokes had successfully been produced lost the righting reflex and became unresponsive to stimuli. After 30 minutes of ischemia, tension on the clasps was removed and blood flow to the brain restored. Rats were again treated with compounds on the morning after the stroke. On the third day after the stroke the animals received an overdose of barbituate anesthetic, and the brain was perfused in situ with 10% neutral, buffered formalin. After perfusion with amounts of formalin adequate to fix the brain, the brains were removed and stored in 10% formalin until histological sections could be prepared.
One of the areas of the brain that is most susceptible to ischemia induced damage both in the rat and the human is the CA1 pyramidal cell layer of the hippocampus. In animals that remain unresponsive for the 30 minute period of ischemia, the CA1 pyramidal cell layer is completely destroyed. This layer of cells was examined microscopically in histological sections prepared from the hippocampus. Brain damage was rated according to the following scale: 0 = no damage, completely intact cell layer 1 = mild damage, one-third of CA1 layer dead 2 = moderate damage, two-thirds of CA1 layer dead 3 = severe damage, complete destruction of CA1 layer
Damage in 10-12 sections from each brain was assessed in order to obtain an accurate estimate of damage. An average damage score was calculated for each treatment group. Scores from treated groups were compared statistically with scores from control groups which received only the vehicle (2% acacia) that was used to suspend the compounds. The level of significance was determined using Student's "t-test".

For assay [2], the system named is adjuvant-induced arthritis. Kind of assay: Developing Adjuvant-Induced Arthritis Test in Rats. The note with it: Rattus norvegicus, po, 720 h; 50 mg/kg P.O. x 29; AUC of uninjected paw volumes, Days 16 through 30; read-out: % Inhibition of Uninjected Paw Volume Inflammation. In kind it is in vivo, male Lewis-Wistar rats.
Setting [3] is: 100 mg/kg given orally as a suspension in 2% acacia.
Where [4] appears, read: 50 mg/kg given orally as a suspension in 2% acacia.

For `CC(C)(C)c1cc(C=C2SCN(CC(N)=O)C2=O)cc(C(C)(C)C)c1O` [Example 5, 5-{[3,5-bis(1,1-dimethylethyl)-4-hydroxyphenyl]methylene}-4-oxo-3-thiazolidineacetamide], in assay [1] (setting [3]), the “Damage Score” value was 1.8 ± 0.4 (p=0.05). For the same compound, in assay [2], the inhibition in vivo at 50 mg/kg is 7%. With `CSCCN1CSC(=Cc2cc(C(C)(C)C)c(O)c(C(C)(C)C)c2)C1=O` [Example 6, 5-{[3,5-bis(1,1-dimethylethyl)-4-hydroxyphenyl]methylene}-3-[2-(methylthio)ethyl]-4-thiazolidinone], the “Damage Score” value in assay [1] (setting [3]) came out at 2.5 ± 0.2. For the compound `COCCN1CSC(=Cc2cc(C(C)(C)C)c(O)c(C(C)(C)C)c2)C1=O` [Example 7, 5-{[3,5-bis(1,1-dimethylethyl)-4-hydroxyphenyl]methylene}-3-(2-methoxyethyl)-4-thiazolidinone], the “Damage Score” value in assay [1] (setting [3]) turned out to be 2.5 ± 0.2. Moreover, in assay [2], the inhibition in vivo at 50 mg/kg was 30%. For `CN1CSC(Cc2cc(C(C)(C)C)c(O)c(C(C)(C)C)c2)C1=O` (centres unmarked) [Example 11, 5-{[3,5-bis(1,1-dimethylethyl)-4-hydroxyphenyl]methyl}-3-methyl-4-thiazolidinone], in that order: 2.1 ± 0.3 and 19.7%. In the case of `CN1C[S+]([O-])C(=Cc2cc(C(C)(C)C)c(O)c(C(C)(C)C)c2)C1=O` (centres unmarked) [Example 12, 5-{[3,5-bis(1,1-dimethylethyl)-4-hydroxyphenyl]methylene}-3-methyl-4-thiazolidinone, 1-oxide], the “Damage Score” value in assay [1] (setting [3]) came to 1.8 ± 0.4. Moreover, the inhibition in vivo at 50 mg/kg in assay [2] worked out at 4.8%. In the case of `CN1CS(=O)(=O)C(=Cc2cc(C(C)(C)C)c(O)c(C(C)(C)C)c2)C1=O` [Example 13, 5-{[3,5-bis(1,1-dimethylethyl)-4-hydroxyphenyl]methylene}-3-methyl-4-thiazolidinone, 1,1-dioxide], the “Damage Score” value in assay [1] (setting [3]) was found to be 2.1 ± 0.3. In assay [2], the inhibition in vivo at 50 mg/kg is 8.7%. As for `CN(C)N1C[S+]([O-])C(=Cc2cc(C(C)(C)C)c(O)c(C(C)(C)C)c2)C1=O` (centres unmarked) [Example 22, 5-{[3,5-bis(1,1-dimethylethyl)-4-hydroxyphenyl]methylene}-3-(dimethylamino)-4-thiazolidinone, 1-oxide], the “Damage Score” value in assay [1] (setting [3]) is 2.3 ± 0.3. Further, the inhibition in vivo at 50 mg/kg in assay [2] was found to be 1%.

On to `CC(C)(C)c1cc(C=C2C(=O)NC[S+]2[O-])cc(C(C)(C)C)c1O` (centres unmarked) [Example 23, 5-{[3,5-bis(1,1-dimethylethyl)-4-hydroxyphenyl]methylene}-4-thiazolidinone, 1-oxide], for which the “Damage Score” value in assay [1] (setting [3]) was determined as 2.2 ± 0.4. Besides, the inhibition in vivo at 50 mg/kg in assay [2] stood at 28%. In the case of `CC(=O)OCCN1CSC(=Cc2cc(C(C)(C)C)c(O)c(C(C)(C)C)c2)C1=O` [Example 26, 5-{[3,5-bis(1,1-dimethylethyl)-4-hydroxyphenyl]-methylene}-3-[2-(acetyloxy)ethyl]-4-thiazolidinone], the “Damage Score” value in assay [1] (setting [3]) is 1.9 ± 0.4. In addition, the inhibition in vivo at 50 mg/kg in assay [2] amounted to 30.4%.

On to `CNCCN1CSC(=Cc2cc(C(C)(C)C)c(O)c(C(C)(C)C)c2)C1=O` [Example 28, 5-{[3,5-bis(1,1-dimethylethyl)-4-hydroxyphenyl]methylene}-3-[2-(methylamino)ethyl]-4-thiazolidinone], for which, in assay [1] (setting [4]), the “Damage Score” value is 1.0 ± 0.4 (p=0.009). Moreover, the inhibition in vivo at 50 mg/kg in assay [2] came out at 72%. Regarding `COc1ccc(CN2CSC(=Cc3cc(C(C)(C)C)c(O)c(C(C)(C)C)c3)C2=O)cc1` [Example 36, 5-{[3,5-bis(1,1-dimethylethyl)-4-hydroxyphenyl]methylene}-3-[(4-methoxyphenyl)methyl]-4-thiazolidinone], the “Damage Score” value in assay [1] (setting [3]) is reported as 2.3 ± 0.4. Turning to `CC(C)(C)c1cc(C=C2SCN(CC#N)C2=O)cc(C(C)(C)C)c1O` [Example 38, 5-{[3,5-bis(1,1-dimethylethyl)-4-hydroxyphenyl]methylene}-4-oxo-3-thiazolidineacetonitrile], in assay [1] (200 mg/kg given orally as a suspension in 2% acacia), the “Damage Score” value came out at 1.6 ± 0.04. Also, in assay [2], the inhibition in vivo at 50 mg/kg was 1.8%.

For the compound `CC(C)(C)c1cc(C=C2SCN(NCCO)C2=O)cc(C(C)(C)C)c1O` [Example 55, 5-{[3,5-bis(1,1-dimethylethyl)-4-hydroxyphenyl]methylene}-3-[(2-hydroxyethyl)amino]-4-thiazolidinone], in assay [2], the inhibition in vivo at 50 mg/kg was 96.2%. Same read-out and setting: with `CCCc1cc(C=C2SCN(C)C2=O)cc(CCC)c1O` [Example 56, 5-[(4-hydroxy-3,5-dipropylphenyl)methylene]-3-methyl-4-thiazolidinone] the figure was 38.2%; with `CCCc1cc(C=C2SCNC2=O)cc(CCC)c1O` [Example 57, 5-[(4-hydroxy-3,5-dipropylphenyl)methylene]-4-thiazolidinone], 44.1%.

For the compound `Cc1cc(C=C2SCNC2=O)cc(C(C)(C)C)c1O` [Example 58, 5-{[3-(1,1-dimethylethyl)-4-hydroxy-5-methylphenyl]methylene}-4-thiazolidinone], the inhibition in vivo at 50 mg/kg in assay [2] stood at 16.9%. With `Cc1cc(C=C2SCN(N)C2=O)cc(C(C)(C)C)c1O` [Example 59, 3-amino-5-{[3-(1,1-dimethylethyl)-4-hydroxy-5-methylphenyl]methylene}-4-thiazolidinone], the inhibition in vivo at 50 mg/kg in assay [2] amounted to 19.8%. Still for that read-out and setting: the figure for `Cc1cc(C=C2SC(=S)N(N(C)C)C2=O)cc(C(C)(C)C)c1O` [Example 60, 5-{[3-(1,1-dimethylethyl)-4-hydroxy-5-methylphenyl]methylene}-3-dimethylamino-2-thioxo-4-thiazolidinone] is 40.6%.

`Cc1cc(C=C2SCN(C)C2=O)cc(C(C)(C)C)c1O` [Example 61, 5-{[3-(1,1-dimethylethyl)-4-hydroxy-5-methylphenyl]methylene}-3-methyl-4-thiazolidinone]: in assay [1] (setting [4]), the “Damage Score” value is 1.7 ± 0.3 (p=0.03). Moreover, the inhibition in vivo at 50 mg/kg in assay [2] worked out at 5.3%. Regarding `CC(=O)OCCCc1cc(C=C2SCN(C)C2=O)cc(CCCOC(C)=O)c1O` [Example 63, 5-{[3,5-bis[3-(acetyloxy)propyl]-4-hydroxyphenyl]methylene}-3-methyl-4-thiazolidinone], the inhibition in vivo at 50 mg/kg in assay [2] is 9.8%. For `CC(=O)OCCCc1cc(C=C2SCN(N(C)C)C2=O)cc(CCCOC(C)=O)c1O` [Example 64, 5-{[3,5-bis[3-(acetyloxy)propyl]-4-hydroxyphenyl]methylene}-3-(dimethylamino)-4-thiazolidinone], the inhibition in vivo at 50 mg/kg in assay [2] is 5.5%. Same read-out and setting: the figure for `CN1CSC(=Cc2ccc(O)c(C(C)(C)C)c2)C1=O` [Example 66, 5-{[3-(1,1-dimethylethyl)-4-hydroxyphenyl]-methylene}-3-methyl-4-thiazolidinone] is 26.1%.

As for `CC(C)(C)c1cc(C=C2SC(=O)NC2=O)cc(C(C)(C)C)c1O` [Example 67, 5-{[3,5-bis(1,1-dimethylethyl)-4-hydroxyphenyl]methylene}-2,4-thiazolidinedione], the “Damage Score” value in assay [1] (setting [3]) is listed as 1.4 ± 0.3 (p<0.05).

For the compound `Cc1cc(C=C2SCN(C)C2=O)cc(C)c1O` [Example 68, 5-[(4-hydroxy-3,5-dimethylphenyl)methylene]-3-methyl-4-thiazolidinone], the inhibition in vivo at 50 mg/kg in assay [2] worked out at 6.5%. `CC(C)(C)c1cc(C=C2CCNC2=O)cc(C(C)(C)C)c1O` [Example 69, 3-{[3,5-bis(1,1-dimethylethyl)-4-hydroxyphenyl]methylene}-2-pyrrolidinone]: in assay [1] (setting [4]), the “Damage Score” value was 0.98 ± 0.42 (p=0.037). In the case of `CN1CCC(=Cc2cc(C(C)(C)C)c(O)c(C(C)(C)C)c2)C1=O` [Example 70, 3-{[3,5-bis(1,1-dimethylethyl)-4-hydroxyphenyl]-methylene}-1-methyl-2-pyrrolidinone], the “Damage Score” value in assay [1] (setting [3]) is 0.7 ± 0.4 (p=0.039). For the compound `CN1C(=O)C(=Cc2cc(C(C)(C)C)c(O)c(C(C)(C)C)c2)SC1O` (centres unmarked) [Example 71, 5-{[3,5-bis(1,1-dimethylethyl)-4-hydroxyphenyl]methylene}-2-hydroxy-3-methyl-4-thiazolidinone], the inhibition in vivo at 50 mg/kg in assay [2] was found to be 48.2%.

(Values after EP0391644B1, “Aryl-substituted rhodanine derivatives” (ELI LILLY AND COMPANY, priority 1989, dated 1990).)
